# Measured values reported in patent US20200277268A1, “PENTAFLUOROPHENYL SULFONAMIDE COMPOUNDS, COMPOSITIONS AND USES THEREOF” (DALRIADA THERAPEUTICS INC., priority 2017, published 2020).
# “Also recorded” adds a separate entry of the source.
# Tests used:
# BSA, lysozyme, STAT3/5 = experiment: 19F NMR screen against Cys-containing proteins; format: binding; details: 100 μM I-1, 2 hours at 37° C.
# Protocol: To assess potential reactivity of I-1 against Cys containing proteins, a series of ^19F NMR studies were conducted with BSA, lysozyme, STAT3, and STATS. […] All samples were prepared in 100 mM HEPES pH 7.4, and 100 μM 5-fluoro-Trp, with a final concentration of 10% D20 and 10% DMSO. The samples were incubated for 2 hours at 37° C. prior to data collection. All spectra were normalized and referenced according to the fluorine peak of 5-fluoro-Trp.
# UBA5 [1] = molecular target: T1, UBA5 (Homo sapiens, UniProt Q9GZZ9); experiment: In vitro transthiolation assay (UFM1-UFC1 conjugate formation); format: biochemical; details: 50 nM UBA5, 3.5 hours pre-incubation, 0 to 1 μM I-1
# T1 construct: Constructs of full length human UBA5 (1-404) were cloned into a pET28b(+) vector; His-SUMO (N, cleaved yes); made in house; host or cells: E. coli BL21 (DE3) RILP
# T1 sequence (Q9GZZ9 whole entry): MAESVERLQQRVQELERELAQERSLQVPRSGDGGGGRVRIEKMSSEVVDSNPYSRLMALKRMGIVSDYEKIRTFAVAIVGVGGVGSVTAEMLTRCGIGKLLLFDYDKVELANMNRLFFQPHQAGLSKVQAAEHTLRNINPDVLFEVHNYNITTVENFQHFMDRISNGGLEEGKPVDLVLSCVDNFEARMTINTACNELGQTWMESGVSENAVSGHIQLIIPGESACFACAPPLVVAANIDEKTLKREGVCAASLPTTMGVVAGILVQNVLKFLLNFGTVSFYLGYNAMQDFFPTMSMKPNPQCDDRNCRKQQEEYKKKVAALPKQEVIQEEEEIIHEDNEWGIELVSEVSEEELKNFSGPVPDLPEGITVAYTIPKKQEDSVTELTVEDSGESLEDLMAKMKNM
# Protocol: UBA5 and test compounds were pre-incubated for a period of 8 hours at 37° C. prior to addition of other assay components. After this period, UFM1, UFC1 and ATP were introduced to initiate the reactions. Final concentrations in the reactions were 250 nM UBA5, 10 μM UFM1, 10 μM UFC1 and 100 μM ATP for total assay volumes of 20 μL, in buffer consisting of 50 mM 4-(2-hydroxyethyl)-1-piperazineethanesulfonic acid (HEPES),), 0.5 mM TCEP, 5 mM MgCl2, at pH 7.4. A final concentration of 10% (v/v) DMSO was present in all reactions. The reactions were allowed to proceed for 1 hour before stopping with 4× Laemmli buffer (Bio-Rad 1610747). Samples were then run on 4-20% non-reducing SDS-PAGE stain-free gels to separate protein conjugates. Gels were subsequently imaged using Stain-free imaging technology (Bio-Rad). Image Lab software was used to quantify the intensity of the UFM1-UFC1 conjugate bands to controls with no inhibitor present and reported as % inhibition values.
# I-1 was evaluated as well using differing transthiolation assay conditions, with a reduction in UBA5 concentration to 50 nM and a pre-incubation period of 3.5 hours at 37° C. of UBA5 with I-1. This was followed by a 30 minute reaction time after UFM1, UFC1 and ATP addition. A final concentration of 5% (v/v) DMSO was used.
# [2] = Intrinsic clearance in mouse hepatocytes
# Protocol: A stock of 100 μM test compound was prepared by diluting the 10 mM I-1 test compound in DMSO with a solution of 50% acetonitrile and 50% water. In a 96-well non-coated plate, 198 μL of hepatocytes was pipetted, and the plate was placed in the incubator on an orbital shaker to allow the hepatocytes to warm for 10 minutes. To this solution 2 μL of the 100 μM I-1 was added to start the reaction, and the plate was placed on an orbital shaker. […] The reaction solution was then vortexed for 10 minutes and centrifuged at 4,000 rpm for 30 minutes at 4° C. Next, 400 μL of the supernatant was transferred to one new 96-well plate, centrifuged at 4,000 rpm for 30 minutes at 4° C., and 100 μL of the supernatant was transferred to a new 96-well plate ensuring the pellet was not disturbed. 100 μL of ultrapure water was added to all samples for analysis by LC-MS/MS.
# Injection volume was 10 μL.
# [3] = tested on: UFMylation pathway (UBA5, UFC1, UFM1, c-Myc) in MV4-11 cells; experiment: Western blot of UFMylation pathway in MV4-11 cells; format: cell-based; details: 8 hours
# Protocol: Post-treatment (8 hours) of MV4-11 cells with I-1 test compound at 1, 0.5, 0.25, 0.1 and 0 μM concentrations, all cells were lysed with radioimmunoprecipitation assay (RIPA) buffer: 20 mM Tris pH 7.4, 150 mM NaCl, 0.5% deoxycholate, 1% Triton X-100, 0.1% sodium dodecyl sulfate (SDS). Total protein was measured using BCA assay (Sigma). In each assay, clarified protein were resolved on a 4%-15% polyacrylamideSDS gel and transferred to a PVDF membrane (Bio-Rad). The membranes were blocked with 5% solution of skim milk powder in TBST and incubated for at least 1 hour followed by an overnight incubation at 4° C. in primary antibody (1:1000 dilution). Blots were probed with antibodies against UBA5, UFM1, UFC1, c-Myc, and beta-actin was used as a loading control (Santa Cruz Biotechnology catalog # sc-835). The PVDF membrane then washed with TBST (3 times for 5 minutes). A horseradish peroxides (HRP)-conjugated goat anti-mouse IgG secondary antibodies (Cell signaling Catalog #7076S) was applied to the membrane (1:5000 dilution) and incubated for 1 hour at room temperature. The blots were then rinsed again 3 times in TBST for 10 minutes. Bands were visualized using clarity western ECL substrate luminal/enhancer solution and peroxide solution 1:1 ratio for HRP secondary antibody, according to the manufacturer's instructions (Bio-Rad) and analyzed using Image lab software (Bio-Rad).
# U118MG = experiment: Cell viability, glioblastoma U118MG; format: cell-based; details: Homo sapiens, U-118-MG; glioblastoma cell line
# Protocol: The anti-cancer efficacy of exemplary compounds of the application were assessed in vitro against different cancer cell lines. […] 1×10^4 cells/well were plated in 96-well assay plates in culture medium. […] In some instances, FBS was removed for periods ranging from 16-24 hours, and re-introduced with test compound addition. After 24 hrs, test compounds and vehicle controls were added to appropriate wells such that the final volume was 100 μl in each well. The cells were cultured for the desired test exposure period (72 hours) at 37° C. and 5% CO2. The assay plates were removed from […] incubator and 20 μl/well of CellTiter-Blue® Reagent was added. The plates were incubated using standard cell culture conditions for 1-4 hours. Afterwards, the plates were shaken for 10 seconds and florescence was recorded at 560/590 nm using a Cytation 3 spectrophotometer. IC50 values were determined using non-linear regression analysis with GraphPad Prism 6.0 (GraphPad Software Inc.).
# UBA5 [4] = molecular target: T1, UBA5; experiment: Thermal shift assay of UBA5; format: binding; details: 50 μM I-1, 0.5 μM UBA5; without compound 46.43° C.
# Protocol: SYPRO Orange protein gel stain (Sigma-Aldrich) was used to conduct thermal shift assays. This was done on a Bio-Rad C1000 Touch ThermoCycler with a CFX96 Real-Time optical unit. Final UBA5 protein concentrations of 0.5 μM were used in 50 mM HEPES, pH 7.4. UBA5 was pre-incubated with test compound I-1 for 4 hours at 30° C. Next, SYPRO orange was added to the samples for a final 5× (10 μM) concentration from the original 5000× stock. DMSO content was 5% (v/v). Heating was done in 0.5° C. increases with 30 seconds in between, from 10 to 75° C. Fluorescence intensity was measured at […] followed by excitation at […]. This emission intensity was graphed against temperature and then recorded as a first derivative curve. The temperature of the resultant curve minima provided the melting temperature (Tm) of the protein. Experiments were run in triplicates.
smiles,measurement,setting,value
"O=S(=O)(c1c(F)c(F)c(F)c(F)c1F)N(Cc1ccc(F)cc1)C1CC1 [Compound I-1, N-cyclopropyl-2,3,4,5,6-pentafluoro-N-(4-fluorobenzyl)benzenesulfonamide]",reactivity towards Cys-containing proteins (free fluoride release),"BSA, lysozyme, STAT3/5",no significant fluoride release; also recorded: unreactive
same,UFM1-UFC1 conjugate formation,UBA5 [1],no conjugate formation at sub-micromolar concentrations
same,half-life at 1 μM,[2],3.07 h
same,concentration at which UFM1-UFC1 conjugate levels decrease,[3],≥ 250 nM
same,concentration at which c-Myc levels decrease,[3],≥ 250 nM
same,concentration giving complete wipe-out of UBA5 total protein,[3],greater than 500 nM
same,concentration giving reduction of UBA5 total protein levels,[3],250 nM
same,IC50,U118MG,10.3 µM
same,melting temperature (Tm) of UBA5 with compound,UBA5 [4],44.33 °C
